Laboratory results taken from ChEMBL document CHEMBL1201862, “PubChem BioAssay data set” (2004).
Active and inactive are the calls of the source.

How the values were obtained:
[1] = cells; format: functional, cell-based
[2] = test system: BJ; assay: cells; format: functional, cell-based; conditions: Homo sapiens
[3] = Trypanosoma cruzi growth suppression in host cells – NIH3T3 host cells, beta-gal luminescence, confirmation (AID 2044); format: functional, cell-based;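 further: intracellular parasites grown in NIH/3T3 mouse fibroblasts as host cells; luminescent beta-galactosidase reporter signal from transgenic T. cruzi replicating inside host cells; inhibitors lower the luminescence signal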
[4] = NIH3T3 cell viability loss – ATP luminescence, mouse fibroblasts, counter-screen, dose response (AID 2010); format: functional, cell-based;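 further: cells exposed to compound for about 90 hours before reading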
[5] = DRD fibroblast viability loss – cell-based, non-viral oncogenic, luminescence, dose response (AID 1934); format: functional; conditions: Homo sapiens
[6] = HEK-293T viability loss after treatment – luminescence, T-cell screen hits, cytotoxicity control for TCR NF-kB inhibitor project, dose response (AID 489026); format: functional, cell-based;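 further: cells exposed to compound about 14 hours before the viability readout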
[7] = Counterscreen for AddAB inhibitors: absorbance-based bacterial cell-based high throughput dose response assay for inhibitors of bacterial viability. [Related pubchem assays (depositor defined):AID435030, AID449728, AID449731, AID488942, AID488955, AID488956]; format: functional
[8] = target: Heat shock protein HSP 90-alpha (Homo sapiens, UniProt P07900); format: functional, organism-based
[9] = test system: Jurkat; assay: SAR Analysis of small molecule inhibitors of T-cell specific antigen receptor-induced NF-kB activation in a Jurkat cell line using a luminescence assay - Set 2. [Related pubchem assays (depositor defined):AID435003, AID435012, AID465]; format: functional, cell-based; conditions: Homo sapiens
[10] = test system: HEK293; assay: SAR Analysis of small molecule inhibitors of T-cell specific antigen receptor-induced NF-kB activation in a HEK-293T cell line using a luminescence assay - Set 2. [Related pubchem assays (depositor defined):AID435003, AID435012, AID489026]; format: functional, cell-based; conditions: Homo sapiens
[11] = HepG2 cell cytotoxicity, dose response, cytotoxicity control for non-replicating M. tuberculosis project (AID 489018); format: functional; conditions: Mycobacterium tuberculosis
[12] = target: T1, Ubiquitin-conjugating enzyme E2 N (Homo sapiens, UniProt P61088); format: functional;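 further: Dose-response confirmation in a TR-FRET assay detecting UBC13-driven polyubiquitin chain formation, inhibition measured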
T1 sequence (P61088 whole entry): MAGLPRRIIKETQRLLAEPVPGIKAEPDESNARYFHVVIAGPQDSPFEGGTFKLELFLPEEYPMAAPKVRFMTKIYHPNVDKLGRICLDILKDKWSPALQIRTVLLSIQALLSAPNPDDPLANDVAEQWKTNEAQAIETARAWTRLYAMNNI

[13] = target: Nonstructural protein 1 (Influenza A virus, UniProt Q194T2); format: functional, Influenza A virus (A/California/07/2009(H1N1))
Sequence of Nonstructural protein 1 (Q194T2 whole entry): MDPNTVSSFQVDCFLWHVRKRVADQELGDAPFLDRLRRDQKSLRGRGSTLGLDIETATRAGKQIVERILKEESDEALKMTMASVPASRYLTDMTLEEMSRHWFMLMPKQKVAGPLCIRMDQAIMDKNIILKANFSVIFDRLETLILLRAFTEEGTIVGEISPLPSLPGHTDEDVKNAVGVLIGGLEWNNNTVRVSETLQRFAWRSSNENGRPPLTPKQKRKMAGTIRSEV

[14] = target: T2, Heat shock factor protein 1 (Mus musculus, UniProt P38532); assay: enhancement of HSF1-driven luciferase signal – cell-based, NIH3T3, luminescence, dose retest, confirmation (AID 435004); format: functional;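 further: stress induced by proteasome inhibitor MG132 added 30 min after compound; luciferase reporter driven by HSF1 response element in NIH3T3 cells; actives raise luminescence as potentiators of the MG132 stress response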
T2 sequence (P38532 whole entry): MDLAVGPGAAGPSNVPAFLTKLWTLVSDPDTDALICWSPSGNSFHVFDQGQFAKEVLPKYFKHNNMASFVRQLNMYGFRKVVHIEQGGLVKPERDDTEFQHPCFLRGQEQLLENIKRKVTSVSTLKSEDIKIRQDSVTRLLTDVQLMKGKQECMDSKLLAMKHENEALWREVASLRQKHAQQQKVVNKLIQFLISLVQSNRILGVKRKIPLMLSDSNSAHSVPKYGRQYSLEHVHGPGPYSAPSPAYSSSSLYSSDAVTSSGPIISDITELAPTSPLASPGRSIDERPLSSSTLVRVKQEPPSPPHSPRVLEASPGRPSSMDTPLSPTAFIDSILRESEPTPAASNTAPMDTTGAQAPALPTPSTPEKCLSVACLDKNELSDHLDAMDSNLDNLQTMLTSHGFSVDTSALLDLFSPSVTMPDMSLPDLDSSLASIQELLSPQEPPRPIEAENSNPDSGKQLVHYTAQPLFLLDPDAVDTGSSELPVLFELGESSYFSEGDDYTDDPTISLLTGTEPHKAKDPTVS

[15] = cells; format: functional
[16] = test system: HEK293; assay: membrane integrity loss in HEK cells – cell-based, fluorescence, cytotoxicity control for IDE activator project, dose response (AID 588440); format: functional; conditions: Homo sapiens;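 further: cytotoxicity by LDH release measuring loss of membrane integrity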
[17] = alpha-synuclein stem-loop luciferase translation blockers – H4 neuroglioma cells, luminescence, confirmation (AID 1988); format: functional, cell-based
[18] = mitochondrial function rescue without frataxin homolog – Friedreich's ataxia, plus single-dose screen, dose response (AID 1465); format: functional;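 further: yeast depleted of Yfh1p frataxin homolog grown on glycerol needing respiration; WST-1 tetrazolium dye reduction as measure of cellular dehydrogenase metabolic activity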
[19] = test system: BJ; assay: growth inhibition of engineered Ras-driven BJ cells – cell-based, alamar blue fluorescence, cherrypicked samples, dose response (AID 2631); format: functional; conditions: Homo sapiens;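 further: confirmatory dose-response assay in RAS-dependent BJ fibroblasts engineered with TERT, LT and ST, with cytotoxicity read by fluorescence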
[20] = general cell-killing toxicity readout – plate reader, dry powder samples, cytotoxicity control for PAX8 inhibitor project, dose response (AID 743021); format: functional, cell-based
[21] = test system: Streptococcus sp. 'group A'; assay: Streptococcus pyogenes SK(-)GAS viability under kanamycin – luminescence, BacTiterGlo, confirmation, counter-screen for streptokinase expression inhibitor project, dose response (AID 1900); format: functional, organism-based
[22] = target: T3, Type-1 angiotensin II receptor (Homo sapiens, UniProt P30556); assay: antagonism of angiotensin II type 1 receptor – cell-based, uHTS hits, selectivity assay for APJ receptor antagonist project, dose response (AID 463214); format: functional;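 further: antagonist potency against angiotensin II stimulated AT1 response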
T3 sequence (P30556 whole entry): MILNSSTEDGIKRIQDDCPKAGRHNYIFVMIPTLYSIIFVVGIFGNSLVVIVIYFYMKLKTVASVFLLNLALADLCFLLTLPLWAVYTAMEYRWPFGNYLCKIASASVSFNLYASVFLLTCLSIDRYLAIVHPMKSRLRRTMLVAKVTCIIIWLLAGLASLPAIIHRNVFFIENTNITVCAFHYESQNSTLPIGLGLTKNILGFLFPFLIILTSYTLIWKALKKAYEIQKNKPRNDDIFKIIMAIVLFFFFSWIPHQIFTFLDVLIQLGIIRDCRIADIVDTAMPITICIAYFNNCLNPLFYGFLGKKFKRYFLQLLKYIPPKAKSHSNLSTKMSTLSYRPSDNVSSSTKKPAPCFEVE

[23] = test system: CHO; assay: CHO cell viability loss, potency – luminescence, cytotoxicity control for TLR9-MyD88 binding inhibitor project, dose response (AID 588339); format: functional, cell-based, hamster; conditions: Cricetulus griseus;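 further: CHO cells stably coexpressing TLR9 and MyD88 fusions from primary screen; compound exposure lasted 48 hours before viability readout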
[24] = target: Genome polyprotein (dengue virus type 2, UniProt P29990); assay: flavivirus cap methylation enzyme inhibition – biochemical, confirmation dose response, primary screen (AID 588689); format: functional
Sequence of Genome polyprotein (P29990 2492-3391 limits assumed): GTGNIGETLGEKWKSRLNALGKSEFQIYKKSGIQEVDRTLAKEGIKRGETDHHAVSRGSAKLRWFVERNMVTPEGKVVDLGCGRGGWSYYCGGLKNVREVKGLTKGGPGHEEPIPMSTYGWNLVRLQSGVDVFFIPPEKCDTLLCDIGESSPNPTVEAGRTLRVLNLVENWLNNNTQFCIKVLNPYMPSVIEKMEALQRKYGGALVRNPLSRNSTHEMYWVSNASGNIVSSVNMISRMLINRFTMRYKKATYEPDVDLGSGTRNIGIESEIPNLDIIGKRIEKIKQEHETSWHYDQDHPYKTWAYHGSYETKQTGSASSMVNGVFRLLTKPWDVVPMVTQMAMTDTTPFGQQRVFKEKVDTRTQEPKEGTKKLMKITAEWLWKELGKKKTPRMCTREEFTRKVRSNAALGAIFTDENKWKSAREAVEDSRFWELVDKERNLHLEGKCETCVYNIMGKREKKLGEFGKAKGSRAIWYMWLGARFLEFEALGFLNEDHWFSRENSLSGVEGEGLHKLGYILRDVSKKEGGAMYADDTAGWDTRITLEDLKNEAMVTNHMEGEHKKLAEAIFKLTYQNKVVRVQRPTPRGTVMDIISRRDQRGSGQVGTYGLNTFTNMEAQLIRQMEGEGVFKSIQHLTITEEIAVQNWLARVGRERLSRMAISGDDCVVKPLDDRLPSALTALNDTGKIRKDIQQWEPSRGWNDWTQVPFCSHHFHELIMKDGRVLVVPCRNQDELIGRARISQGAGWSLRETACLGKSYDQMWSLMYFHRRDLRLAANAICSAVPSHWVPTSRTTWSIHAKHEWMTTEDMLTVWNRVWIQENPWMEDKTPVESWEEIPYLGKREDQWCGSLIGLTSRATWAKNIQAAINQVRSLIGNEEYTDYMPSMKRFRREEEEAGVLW

[25] = viability loss in Vero cells – cytotoxicity control for Vif-APOBEC3G degradation inhibitor project, dose response (AID 1117358); format: functional; conditions: Vero
[26] = target: Cytochrome P450 2C9 (Homo sapiens, UniProt P11712)
Sequence of Cytochrome P450 2C9 (P11712 whole entry): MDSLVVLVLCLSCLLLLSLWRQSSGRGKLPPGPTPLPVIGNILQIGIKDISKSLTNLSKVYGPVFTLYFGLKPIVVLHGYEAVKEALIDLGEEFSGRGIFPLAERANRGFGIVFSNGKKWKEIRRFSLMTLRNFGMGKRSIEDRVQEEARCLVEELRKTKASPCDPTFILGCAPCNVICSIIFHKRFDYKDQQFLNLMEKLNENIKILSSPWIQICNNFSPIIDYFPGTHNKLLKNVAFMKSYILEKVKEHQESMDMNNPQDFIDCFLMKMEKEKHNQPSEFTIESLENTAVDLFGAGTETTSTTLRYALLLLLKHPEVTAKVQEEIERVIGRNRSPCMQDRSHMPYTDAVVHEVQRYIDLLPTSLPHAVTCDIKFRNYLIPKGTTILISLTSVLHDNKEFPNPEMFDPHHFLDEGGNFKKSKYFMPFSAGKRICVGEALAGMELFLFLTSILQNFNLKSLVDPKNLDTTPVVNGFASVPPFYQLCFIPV

[27] = target: SUMO-activating enzyme (Homo sapiens, UniProt Q9UBT2); assay: blockers of UBC9-mediated SUMO conjugation – biochemical, AlphaScreen, SUMOylation inhibitor project, confirmation (AID 2018); format: functional
Sequence of SUMO-activating enzyme (Q9UBE0 whole entry): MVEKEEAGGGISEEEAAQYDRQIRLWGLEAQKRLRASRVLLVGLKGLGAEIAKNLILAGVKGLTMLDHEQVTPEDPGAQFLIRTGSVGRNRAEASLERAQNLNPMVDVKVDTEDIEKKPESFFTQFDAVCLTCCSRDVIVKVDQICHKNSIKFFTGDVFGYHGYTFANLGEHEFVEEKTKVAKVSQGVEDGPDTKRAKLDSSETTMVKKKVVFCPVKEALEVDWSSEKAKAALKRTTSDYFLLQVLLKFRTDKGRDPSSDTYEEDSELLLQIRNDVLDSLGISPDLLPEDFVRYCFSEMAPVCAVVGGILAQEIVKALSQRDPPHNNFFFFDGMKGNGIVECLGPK
Sequence of SUMO-activating enzyme (Q9UBT2 whole entry): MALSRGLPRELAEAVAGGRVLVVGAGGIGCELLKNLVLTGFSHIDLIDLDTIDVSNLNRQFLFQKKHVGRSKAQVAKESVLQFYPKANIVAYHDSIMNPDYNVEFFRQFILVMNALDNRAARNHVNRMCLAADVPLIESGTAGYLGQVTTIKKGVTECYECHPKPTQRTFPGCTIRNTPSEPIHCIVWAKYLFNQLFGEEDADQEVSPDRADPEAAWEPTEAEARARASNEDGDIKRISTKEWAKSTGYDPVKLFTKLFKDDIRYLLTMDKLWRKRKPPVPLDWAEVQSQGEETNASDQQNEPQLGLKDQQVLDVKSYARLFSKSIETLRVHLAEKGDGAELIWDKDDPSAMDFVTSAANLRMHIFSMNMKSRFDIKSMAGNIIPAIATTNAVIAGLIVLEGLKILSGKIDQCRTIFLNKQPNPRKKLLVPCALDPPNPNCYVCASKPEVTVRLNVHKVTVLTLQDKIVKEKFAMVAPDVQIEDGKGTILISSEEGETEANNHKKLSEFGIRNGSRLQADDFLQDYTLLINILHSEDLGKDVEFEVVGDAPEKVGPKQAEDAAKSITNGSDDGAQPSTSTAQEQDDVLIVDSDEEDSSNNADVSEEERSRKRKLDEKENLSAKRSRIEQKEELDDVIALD

## CC(=O)NC(c1ccc2ccccc2c1)c1ccc2cccnc2c1O (configuration not stated)
[1]
  EC50: 7.14 µM (active)
[2]
  EC50: 6.35 µM (active)
[3]
  EC50: 0.306 µM (active)
[4]
  EC50: 0.589 µM (active)
[5]
  EC50: 6.52 µM (active)
[6]
  IC50: > 80 µM (inactive)
[7]
  IC50: > 118 µM (inactive)
[8]
  AC50: 1.98 µM (active)
[9]
  IC50: 1.89 µM (active)
[10]
  IC50: 1.88 µM (active)

## CCOC(=O)C1=C(c2ccccc2)N=C(N)NC1c1ccc(OCc2ccc(Cl)cc2)c(OC)c1 (configuration not stated)
[11]
  CC50: 13.1 µM (active)
[12]
  IC50: > 20 µM (inactive)
[13]
  IC50: 79.2 µM (active)
[14]
  EC50: 25 µM (active)
[15]
  IC50: 9.22 µM (active)
[16]
  IC50: 13 µM (inactive)

## CCOC(=O)c1c(C)[nH]c2c1-c1ccccc1C(=O)C2=O
[17]
  EC50: 0.254 µM (active)
[18]
  EC50: > 100 µM (active)
[19]
  EC50: 0.554 µM (inconclusive)
[20]
  AC50: 4.93 µM (active)

## O=[N+]([O-])c1c(NCCO)cc(Sc2nc3ccccc3s2)c2nonc12
[21]
  EC50: 2.73 µM (active)
[22]
  IC50: 1.9 µM (active)
[23]
  IC50: 1.94 µM (active)
[24]
  IC50: 75.8 µM (active)
[25]
  CC50: > 40 µM (active)
[26]
  AC50: 0.631 µM (inconclusive)

## CCOC(=O)c1c(C)oc2c1c(/C=N/CCC(=O)O)c(O)c1ccccc12
[27]
  IC50: 3.71 µM (active)
